The source of these data is ChEMBL document CHEMBL5335825, “Multi-target potential of newly designed tacrine-derived cholinesterase inhibitors: Synthesis, computational and pharmacological study” (Bioorg Med Chem, 2024).

A short description of one series: in vitro. The following applies: human, SH-SY5Y cells.
A short description of series [1]: Selectivity index, ratio of IC50 for cytotoxicity against human SH-SY5Y cells to IC50 for inhibition of electric eel AChE.
Series [2] is described as follows: Selectivity index, ratio of IC50 for cytotoxicity against human SH-SY5Y cells to IC50 for inhibition of equine serum BuChE.
The target in a further series is Acetylcholinesterase (Electrophorus electricus, UniProt O42275). Nature of the series: Inhibition of electric eel AChE using acetylthiocholine iodide as substrate preincubated for 10 mins followed by substrate addition and measured every min for 10 mins by DTNB based Ellman's assay.
In another series the target is Cholinesterase (Equus caballus, UniProt P81908). Description: Inhibition of equine serum BuChE using butyrylthiocholine iodide as substrate preincubated for 10 mins followed by substrate addition and measured every min for 10 mins by DTNB based Ellman's assay.
For series [3], the target named is Acetylcholinesterase (Electrophorus electricus) (UniProt O42275). Description: Mixed type inhibition of electric eel AChE using varying concentrations of acetylthiocholine iodide as substrate assessed as decrease in Vmax with varied Km by Lineweaver-Burk plot analysis.
The target of series [4] is Cholinesterase (Equus caballus) (UniProt P81908). Nature of the series: Mixed type inhibition of equine serum BuChE using varying concentrations of butyrylthiocholine iodide as substrate assessed as decrease in Vmax with varied Km by Lineweaver-Burk plot analysis.

Activity calls are given as the source filed them. The rule behind the calls is not given here.

Acetylcholinesterase, sequence (O42275 whole entry): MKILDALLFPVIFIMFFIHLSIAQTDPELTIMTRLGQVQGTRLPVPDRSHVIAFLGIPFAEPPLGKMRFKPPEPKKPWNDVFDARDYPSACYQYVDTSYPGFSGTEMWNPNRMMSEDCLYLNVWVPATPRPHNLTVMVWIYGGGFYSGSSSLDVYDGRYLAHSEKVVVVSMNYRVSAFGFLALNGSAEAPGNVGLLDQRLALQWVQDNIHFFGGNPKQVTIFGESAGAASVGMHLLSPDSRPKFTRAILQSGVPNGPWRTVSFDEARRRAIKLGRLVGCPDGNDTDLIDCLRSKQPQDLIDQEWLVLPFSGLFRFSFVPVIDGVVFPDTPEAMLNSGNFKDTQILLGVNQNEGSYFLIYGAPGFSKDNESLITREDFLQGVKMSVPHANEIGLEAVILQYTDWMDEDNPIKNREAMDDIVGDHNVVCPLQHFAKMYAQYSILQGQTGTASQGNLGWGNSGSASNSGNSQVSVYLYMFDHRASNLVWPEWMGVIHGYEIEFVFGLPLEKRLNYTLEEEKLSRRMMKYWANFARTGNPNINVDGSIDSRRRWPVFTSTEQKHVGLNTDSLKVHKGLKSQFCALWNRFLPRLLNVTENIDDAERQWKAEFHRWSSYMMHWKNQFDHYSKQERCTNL
Cholinesterase, sequence (P81908 whole entry): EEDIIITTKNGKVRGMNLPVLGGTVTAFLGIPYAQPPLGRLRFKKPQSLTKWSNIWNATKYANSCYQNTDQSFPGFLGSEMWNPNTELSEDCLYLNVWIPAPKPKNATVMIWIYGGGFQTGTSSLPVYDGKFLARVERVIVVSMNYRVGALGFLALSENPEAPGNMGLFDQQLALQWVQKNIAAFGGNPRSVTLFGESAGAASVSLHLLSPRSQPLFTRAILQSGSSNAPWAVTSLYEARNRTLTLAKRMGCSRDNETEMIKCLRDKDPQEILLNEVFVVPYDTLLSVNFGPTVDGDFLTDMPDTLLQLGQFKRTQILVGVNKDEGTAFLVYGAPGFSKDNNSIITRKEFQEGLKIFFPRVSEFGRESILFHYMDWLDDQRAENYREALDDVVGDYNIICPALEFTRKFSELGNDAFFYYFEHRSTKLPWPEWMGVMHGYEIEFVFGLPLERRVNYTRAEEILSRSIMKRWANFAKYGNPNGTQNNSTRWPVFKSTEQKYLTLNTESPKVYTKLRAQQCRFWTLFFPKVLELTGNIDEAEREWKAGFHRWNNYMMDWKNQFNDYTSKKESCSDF
Acetylcholinesterase (Electrophorus electricus), sequence (O42275 24-633 limits assumed): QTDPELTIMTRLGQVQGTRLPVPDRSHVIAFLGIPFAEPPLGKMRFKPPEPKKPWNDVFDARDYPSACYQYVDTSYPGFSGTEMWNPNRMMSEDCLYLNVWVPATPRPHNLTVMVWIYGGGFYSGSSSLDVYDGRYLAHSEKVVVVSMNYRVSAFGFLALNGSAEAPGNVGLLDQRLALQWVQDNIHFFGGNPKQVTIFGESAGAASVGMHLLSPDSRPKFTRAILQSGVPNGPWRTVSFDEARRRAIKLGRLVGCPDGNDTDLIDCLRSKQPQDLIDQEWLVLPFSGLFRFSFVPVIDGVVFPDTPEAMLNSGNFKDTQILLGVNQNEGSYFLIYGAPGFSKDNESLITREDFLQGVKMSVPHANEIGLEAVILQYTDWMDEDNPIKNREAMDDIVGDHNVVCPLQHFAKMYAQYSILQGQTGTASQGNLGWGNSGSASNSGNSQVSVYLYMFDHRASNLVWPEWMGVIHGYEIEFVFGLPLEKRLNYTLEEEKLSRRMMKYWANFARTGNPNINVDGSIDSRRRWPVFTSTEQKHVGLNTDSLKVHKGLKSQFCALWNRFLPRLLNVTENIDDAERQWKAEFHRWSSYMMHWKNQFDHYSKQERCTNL
Cholinesterase (Equus caballus), sequence (P81908 whole entry): as the sequence (P81908 whole entry) above
Description for in vitro: Cytotoxicity against human SH-SY5Y cells assessed as reduction in cell viability incubated for 24 hrs by crystal violet staining based analysis

On to `O=C(NCCCCCNc1c2c(nc3ccccc13)CCCC2)C1CCN(C(=O)c2ccccc2)CC1`, for which the midpoint of inhibition in “in vitro”, the IC50 at 24 h, lay at 69300 nM. For the same molecule, the “Ratio IC50” value is given as 589.8 in series [1] and 1490.3 in series [2]. Further, the IC50 against Acetylcholinesterase was found to be 117 nM; against Cholinesterase, 46.5 nM.

On to `COc1ccccc1C(=O)N1CCC(C(=O)NCCCCCNc2c3c(nc4ccccc24)CCCC3)CC1`, for which the 50% inhibitory concentration (IC50) at 24 h in “in vitro” is 109000 nM. Moreover, the “Ratio IC50” value in series [1] came to 480.4; in series [2] it was 2266.7. In addition, the IC50 against Acetylcholinesterase stood at 226 nM; against Cholinesterase it was 48 nM.

In turn, `O=C(NCCCCCNc1c2c(nc3ccccc13)CCCC2)C1CCN(C(=O)c2cccc(F)c2)CC1` gave an IC50 at 24 h in the series “in vitro” of 58000 nM. The entries for the “Ratio IC50” value in series [1] and in series [2] were 417.2 and 789, respectively. Further, the half-inhibitory concentration (IC50) turned out to be 139 nM on Acetylcholinesterase and 73.5 nM at Cholinesterase.

For `O=C(NCCCCCNc1c2c(nc3ccccc13)CCCC2)C1CCN(C(=O)c2ccc(Cl)cc2)CC1`, in “in vitro”, the half-maximal inhibitory concentration (IC50) at 24 h was 30700 nM. Besides, the “Ratio IC50” value was determined as 69.4 in series [1] and 268.5 in series [2]. Further, the values for the half-inhibitory concentration (IC50) at Acetylcholinesterase and against Cholinesterase were 443 nM and 114 nM, respectively.

In the case of `O=C(NCCCCCNc1c2c(nc3ccccc13)CCCC2)C1CCN(C(=O)c2ccncc2)CC1`, half-maximal inhibition in the series “in vitro” (IC50 at 24 h) was put at 137000 nM. In addition, the “Ratio IC50” value in series [1] was 472; in series [2], 1635.1. Moreover, the values for the IC50 at Acetylcholinesterase and at Cholinesterase were 291 nM and 84 nM, respectively.

For the molecule `O=C(NCCCCCNc1c2c(nc3ccccc13)CCCC2)C1CCN(C(=O)c2ccc(F)cc2)CC1`, the half-inhibitory concentration (IC50) on Acetylcholinesterase amounted to 370 nM; at Cholinesterase it was 154 nM.

With `O=C(NCCCCCNc1c2c(nc3ccccc13)CCCC2)C1CCN(C(=O)c2ccccc2Cl)CC1`, the inhibition result in series [3] and in series [4] was “Active” each time. The same molecule returned an IC50 at 24 h in “in vitro” of 186000 nM. Moreover, the results for the “Ratio IC50” value in series [1] and in series [2] were 1188.8 and 2247.9, respectively. Further, the IC50 was determined as 156 nM at Acetylcholinesterase and 82.5 nM against Cholinesterase.

`O=C(NCCCCCNc1c2c(nc3ccccc13)CCCC2)C1CCN(C(=O)c2cccc(Cl)c2)CC1` registered a half-inhibitory concentration (IC50) at 24 h in the series “in vitro” of 147000 nM. Besides, the “Ratio IC50” value in series [1] is recorded as 926.2; in series [2], 2082.3. In addition, the IC50 on Acetylcholinesterase worked out at 159 nM; against Cholinesterase it was 70.5 nM.

With `O=C(NCCCCCNc1c2c(nc3ccccc13)CCCC2)C1CCN(C(=O)c2cccnc2)CC1`, the 50% inhibitory concentration (IC50) at Acetylcholinesterase came out at 162 nM; on Cholinesterase, 98.5 nM.

In turn, `COc1ccc(C(=O)N2CCC(C(=O)NCCCCCNc3c4c(nc5ccccc35)CCCC4)CC2)cc1` showed an IC50 at 24 h in “in vitro” of 149000 nM. Further, the “Ratio IC50” value is reported as 667.9 in series [1] and 605.3 in series [2]. The results for the half-inhibitory concentration (IC50) against Acetylcholinesterase and at Cholinesterase were 222 nM and 246 nM, respectively.

As to `COc1cccc(C(=O)N2CCC(C(=O)NCCCCCNc3c4c(nc5ccccc35)CCCC4)CC2)c1`, the midpoint of inhibition in “in vitro”, the IC50 at 24 h, lay at 93600 nM. In addition, the “Ratio IC50” value was found to be 326 in series [1] and 1546.3 in series [2]. For the same molecule, the half-maximal inhibitory concentration (IC50) is 287 nM against Acetylcholinesterase and 60.5 nM at Cholinesterase.

For `O=C(NCCCCCNc1c2c(nc3ccccc13)CCCC2)C1CCN(C(=O)c2ccccc2F)CC1`, in the series “in vitro”, it took 192000 nM to reach half-maximal inhibition (IC50 at 24 h). Besides, the results for the IC50 against Acetylcholinesterase and against Cholinesterase were 241 nM and 34 nM, respectively.

On to `O=C(NCCCCCNc1c2c(nc3ccccc13)CCCC2)C1CCN(C(=O)c2ccccn2)CC1`, for which, in the series “in vitro”, the half-maximal inhibitory concentration (IC50) at 24 h is 112000 nM. Besides, the “Ratio IC50” value in series [1] is given as 247.1; in series [2], 347.1. In addition, the IC50 on Acetylcholinesterase worked out at 455 nM; at Cholinesterase it was 324 nM.

As usually defined, the IC50 is the point on the concentration scale where inhibition reaches its midpoint.
